These results are taken from US20250026721A1, “COMPOUNDS AND METHODS FOR MODULATING RAS-PI3K” (Vividion Therapeutics, Inc., priority 2023, published 2025).

Assay [1] deals with pAKT(S473) in FaDu cell line. The assay can be described thus: In vitro Phospho-AKT(S473) HTRF analysis in FaDu cells. The format is cell-based. Particulars: Homo sapiens, 0.5 h; for IC50: FaDu cells, 30 minutes at 37° C.; for Emax: FaDu, read-out: FaDu pAKT Imax % control. As for the experimental part:
Example 5. In Vitro Phosgho-AKT(S473) Analysis
Functional activity of the compounds to inhibit pAKT were assessed in FaDu or H358 cell lines as indicated below.
• Complete Media • FBS, Corning catalog #35-010-CV • Anti-Anti, Gibco catalog #15240-062 • 96 well plate, Corning catalog #3610 • TrypLE, Gibco catalog #12604013 • Phospho-AKT(S473) HTRF kit, Cisbio catalog #64AKSPET
Cells were detached from the tissue culture flask with TrypLE. The cells were pelleted at 500×g for 5 min, TrypLe was removed and then resuspended in the necessary volume of media+1% FBS to give the appropriate cell density (17,500 cells/mL for FaDu; 20,000 cells/mL for H358). 100 μL of cell suspension/well was dispensed into the 96-well plate while keeping the outer wells of the plate free of cells and filled with PBS to prevent evaporation of interior wells. The plate was incubated at 37° C. and allowed to adhere overnight. The cells were treated with a dose response of compound and incubated at 37° C. for 30 minutes. The cells were then processed and pAKT(S473) levels were assessed following the specifications of the Cisbio HTRF kit.
On the technique in general: In TR-FRET formats the signal depends on donor and acceptor labels being close together.

The next assay has as its target T1, PIK3CA (Homo sapiens, UniProt P42336).
T1 construct: endogenous in cells; host or cells: Jurkat cell lysate
The assay can be described thus: In vitro ELISA target engagement assay for PIK3CA in Jurkat cellular lysate (competition with PIK3CA Biotin Probe). As to conditions: 1 hour at rt, then 500 nM PIK3CA Biotin Probe, read-out: Elisa Target Engagement Assay (TE50). The format is binding. The procedure, abridged: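 Competition format in Jurkat lysate: compound (serial dilutions, top 200 μM) for 1 h at rt, then 500 nM final biotinylated PIK3CA probe for 1 h at rt. Sandwich ELISA with capture antibody and Neutravidin-HRP luminescence read-out measured probe-labelled PIK3CA, giving TE50.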

Structures are written as SMILES.

T1 sequence (P42336 whole entry): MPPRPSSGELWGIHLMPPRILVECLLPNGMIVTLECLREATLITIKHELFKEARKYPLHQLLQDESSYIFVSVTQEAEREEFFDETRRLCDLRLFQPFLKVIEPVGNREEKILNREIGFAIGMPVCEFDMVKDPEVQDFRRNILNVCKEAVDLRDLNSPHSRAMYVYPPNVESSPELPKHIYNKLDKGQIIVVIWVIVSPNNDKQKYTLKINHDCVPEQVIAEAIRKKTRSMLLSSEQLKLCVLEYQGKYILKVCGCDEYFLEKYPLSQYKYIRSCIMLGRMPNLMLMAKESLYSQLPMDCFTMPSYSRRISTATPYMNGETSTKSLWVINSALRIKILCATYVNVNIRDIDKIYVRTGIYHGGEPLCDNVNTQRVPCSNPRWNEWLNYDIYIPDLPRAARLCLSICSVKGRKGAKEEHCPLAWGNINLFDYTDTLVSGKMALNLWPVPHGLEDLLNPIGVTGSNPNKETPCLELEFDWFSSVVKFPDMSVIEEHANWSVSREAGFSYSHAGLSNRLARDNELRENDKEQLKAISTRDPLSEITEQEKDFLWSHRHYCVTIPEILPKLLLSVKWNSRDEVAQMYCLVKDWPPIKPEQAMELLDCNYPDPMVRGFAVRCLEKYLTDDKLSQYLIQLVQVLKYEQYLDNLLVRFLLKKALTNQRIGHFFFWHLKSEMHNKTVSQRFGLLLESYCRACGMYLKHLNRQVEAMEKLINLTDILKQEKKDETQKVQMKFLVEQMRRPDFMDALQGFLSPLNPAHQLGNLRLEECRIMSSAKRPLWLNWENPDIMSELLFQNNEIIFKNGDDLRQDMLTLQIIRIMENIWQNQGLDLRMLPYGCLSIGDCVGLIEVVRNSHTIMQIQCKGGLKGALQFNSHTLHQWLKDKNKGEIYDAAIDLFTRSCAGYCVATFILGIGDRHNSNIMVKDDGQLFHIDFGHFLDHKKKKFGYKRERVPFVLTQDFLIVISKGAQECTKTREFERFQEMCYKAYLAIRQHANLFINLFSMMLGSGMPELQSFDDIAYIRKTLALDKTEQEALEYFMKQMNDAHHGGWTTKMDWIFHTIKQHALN
T1 sequence (P27986 whole entry partner): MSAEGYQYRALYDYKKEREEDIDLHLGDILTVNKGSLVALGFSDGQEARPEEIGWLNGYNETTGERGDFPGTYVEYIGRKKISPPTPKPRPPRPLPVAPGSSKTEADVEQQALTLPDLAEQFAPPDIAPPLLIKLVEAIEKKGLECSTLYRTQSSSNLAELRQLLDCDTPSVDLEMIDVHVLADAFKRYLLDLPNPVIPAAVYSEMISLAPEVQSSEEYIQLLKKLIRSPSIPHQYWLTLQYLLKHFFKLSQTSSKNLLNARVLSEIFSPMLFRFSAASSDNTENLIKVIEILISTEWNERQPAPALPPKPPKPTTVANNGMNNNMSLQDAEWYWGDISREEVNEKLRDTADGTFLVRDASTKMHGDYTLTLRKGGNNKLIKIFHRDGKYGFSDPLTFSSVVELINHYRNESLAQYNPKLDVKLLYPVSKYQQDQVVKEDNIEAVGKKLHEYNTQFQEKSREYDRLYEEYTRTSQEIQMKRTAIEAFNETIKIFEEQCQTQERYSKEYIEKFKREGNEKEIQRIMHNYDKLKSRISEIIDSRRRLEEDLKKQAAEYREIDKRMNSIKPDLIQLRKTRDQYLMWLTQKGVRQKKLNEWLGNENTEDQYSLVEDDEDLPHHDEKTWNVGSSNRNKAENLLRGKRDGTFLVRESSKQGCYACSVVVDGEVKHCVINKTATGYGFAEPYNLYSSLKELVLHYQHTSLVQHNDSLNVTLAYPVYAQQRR

Turning to `CC(O)c1ccc(S(=O)(=O)N2CCC(F)(C(=O)N[C@H](C)/C=C/C(=O)N3CC(F)(F)C3)CC2)c(-c2ccccc2Cl)c1` (stereo partly drawn) [Compound 140, 1-((2′-chloro-5-(1-hydroxyethyl)-[1,1′-biphenyl]-2-yl)sulfonyl)-N-((R,E)-5-(3,3-difluoroazetidin-1-yl)-5-oxopent-3-en-2-yl)-4-fluoropiperidine-4-carboxamide], the values for the IC50 (in assay [1]; on PIK3CA) were 427 nM and 350 nM, respectively. In addition, the Emax in assay [1] was 87.7%.

In the case of `C[C@H](/C=C\S(C)(=O)=O)NC(=O)C1(F)CCN(S(=O)(=O)c2ccc(N3CCCC3=O)cc2-c2ccccc2Cl)CC1` [Compound 205, (R,Z)-1-((2′-chloro-5-(2-oxopyrrolidin-1-yl)-[1,1′-biphenyl]-2-yl)sulfonyl)-4-fluoro-N-(4-(methylsulfonyl)but-3-en-2-yl)piperidine-4-carboxamide], the IC50 in assay [1] came out at 1120 nM; at PIK3CA, 650 nM.

Turning to `C[C@H](/C=C\S(C)(=O)=O)NC(=O)[C@@]1(F)CCCN(S(=O)(=O)c2ccc(C(F)(F)F)cc2-c2ccccc2Cl)CC1` [Compound 310, (R)-1-((2′-chloro-5-(trifluoromethyl)-[1,1′-biphenyl]-2-yl)sulfonyl)-4-fluoro-N—((R,Z)-4-(methylsulfonyl)but-3-en-2-yl)azepane-4-carboxamide], the IC50 in assay [1] was 77.1 nM; at PIK3CA it was 85 nM.

`C[C@H](/C=C\S(C)(=O)=O)NC(=O)[C@]1(F)CCN(S(=O)(=O)c2ccc(Br)cc2-c2ccccc2Cl)[C@H](C)C1` [Compound 143, (2R,4S)-1-((5-bromo-2′-chloro-[1,1′-biphenyl]-2-yl)sulfonyl)-4-fluoro-2-methyl-N-((R,Z)-4-(methylsulfonyl)but-3-en-2-yl)piperidine-4-carboxamide]: in assay [1], the IC50 turned out to be 117 nM and the Emax was determined as 111%. On PIK3CA, the IC50 came to 66.5 nM.

Take `[2H]C([2H])([2H])Oc1ccc(S(=O)(=O)N2CC[C@@](F)(C(=O)N[C@H](C)/C=C\S(C)(=O)=O)C[C@H]2C)c(-c2ccccc2Cl)c1` [Compound 301, (2R,4S)-1-((2′-chloro-5-(methoxy-d3)-[1,1′-biphenyl]-2-yl)sulfonyl)-4-fluoro-2-methyl-N-((R,Z)-4-(methylsulfonyl)but-3-en-2-yl)piperidine-4-carboxamide]: in assay [1], the IC50 is 117 nM and the Emax amounted to 99.8%. In addition, the IC50 at PIK3CA was 77 nM.

With `C[C@H](/C=C/C(=O)N1CC(F)(F)C1)NC(=O)[C@@]1(F)CCCN(C(=O)c2ccc(C(F)(F)F)cc2-c2c(F)cccc2Cl)CC1` [Compound 245, (4R)-1-(2′-chloro-6′-fluoro-5-(trifluoromethyl)-[1,1′-biphenyl]-2-carbonyl)-N-((R,E)-5-(3,3-difluoroazetidin-1-yl)-5-oxopent-3-en-2-yl)-4-fluoroazepane-4-carboxamide], in assay [1], the IC50 was found to be 922 nM and the Emax was 86.2%. Further, the IC50 on PIK3CA was 620 nM.

With `CCOc1ccc(S(=O)(=O)N2CC[C@@](F)(C(=O)N[C@H](C)/C=C\S(C)(=O)=O)C[C@H]2C)c(-c2ccccc2Cl)c1` [Compound 299, (2R,4S)-1-((2′-chloro-5-ethoxy-[1,1′-biphenyl]-2-yl)sulfonyl)-4-fluoro-2-methyl-N-((R,Z)-4-(methylsulfonyl)but-3-en-2-yl)piperidine-4-carboxamide], the figures for the IC50 (in assay [1]; on PIK3CA) were 146 nM and 210 nM, respectively. In assay [1], the Emax was found to be 99.6%.

`C[C@H](/C=C\S(=O)(=O)[C@@H]1CCN(C)C1)NC(=O)C1(F)CCN(S(=O)(=O)c2ccc(Br)cc2-c2ccccc2Cl)CC1` (single isomer, unassigned) [Compound 237, 1-((5-bromo-2′-chloro-[1,1′-biphenyl]-2-yl)sulfonyl)-4-fluoro-N-((R,Z)-4-(((*R)-1-methylpyrrolidin-3-yl)sulfonyl)but-3-en-2-yl)piperidine-4-carboxamide]: the values for the IC50 (in assay [1]; at PIK3CA) were 73.6 nM and 55 nM, respectively.

Turning to `C[C@H](/C=C\S(C)(=O)=O)NC(=O)[C@@]1(F)CCCN(C(=O)c2ccc(Br)cc2-c2ccccc2Cl)CC1` [Compound 241, (R)-1-(5-bromo-2′-chloro-[1,1′-biphenyl]-2-carbonyl)-4-fluoro-N-((R,Z)-4-(methylsulfonyl)but-3-en-2-yl)azepane-4-carboxamide], in assay [1], the IC50 amounted to 281 nM and the Emax was determined as 95.3%. On PIK3CA, the IC50 turned out to be 62 nM.

With `CC(=O)c1ccc(S(=O)(=O)N2CCC(F)(C(=O)N[C@H](C)/C=C/C(=O)N3CC(F)(F)C3)CC2)c(-c2ccccc2Cl)c1` [Compound 138, (R,E)-1-((5-acetyl-2′-chloro-[1,1′-biphenyl]-2-yl)sulfonyl)-N-(5-(3,3-difluoroazetidin-1-yl)-5-oxopent-3-en-2-yl)-4-fluoropiperidine-4-carboxamide], in assay [1], the IC50 was found to be 292 nM and the Emax amounted to 93.5%. Moreover, the IC50 at PIK3CA was 340 nM.

As to `C[C@H](/C=C\S(C)(=O)=O)NC(=O)C1(F)CCN(S(=O)(=O)c2ccc(Br)cc2-c2cccc(Br)c2)CC1` [Compound 58, (R,Z)-1-((3′,5-dibromo-[1,1′-biphenyl]-2-yl)sulfonyl)-4-fluoro-N-(4-(methylsulfonyl)but-3-en-2-yl)piperidine-4-carboxamide], in assay [1], the IC50 turned out to be 743 nM and the Emax was 97.5%. The IC50 on PIK3CA worked out at 850 nM.

For `Cc1ccc(Cl)c([C@@H]2CN(CC(F)(F)F)C[C@@H]2C(=O)N2CCC[C@](F)(C(=O)N[C@H](C)/C=C\S(C)(=O)=O)CC2)c1` (single isomer, unassigned) [Compound 170, (R)-1-((3*R,4*R)-4-(2-chloro-5-methylphenyl)-1-(2,2,2-trifluoroethyl)pyrrolidine-3-carbonyl)-4-fluoro-N-((R,Z)-4-(methylsulfonyl)but-3-en-2-yl)azepane-4-carboxamide], in assay [1], the IC50 worked out at 484 nM and the Emax was found to be 83.2%. At PIK3CA, the IC50 is 760 nM.

For the compound `C[C@@H](NC(=O)C1(F)CCN(S(=O)(=O)c2ccc(Br)cc2-c2ccccc2Cl)CC1)C1=CS(=O)(=O)C1` (single isomer, unassigned) [Compound 234, (*R)-1-((5-bromo-2′-chloro-[1,1′-biphenyl]-2-yl)sulfonyl)-N-(1-(1,1-dioxido-2H-thiet-3-yl)ethyl)-4-fluoropiperidine-4-carboxamide], the IC50 in assay [1] turned out to be 100 nM; on PIK3CA it was 140 nM.

As for `C[C@H](/C=C\S(C)(=O)=O)NC(=O)[C@]1(F)CCN(S(=O)(=O)c2ccc(OC(F)(F)F)cc2-c2ccccc2Cl)[C@H](C)C1` [Compound 250, (2R,4S)-1-((2′-chloro-5-(trifluoromethoxy)-[1,1′-biphenyl]-2-yl)sulfonyl)-4-fluoro-2-methyl-N-((R,Z)-4-(methylsulfonyl)but-3-en-2-yl)piperidine-4-carboxamide], the IC50 in assay [1] amounted to 1640 nM; on PIK3CA, 350 nM. The Emax in assay [1] came to 96.8%.

As for `COCc1ccc(S(=O)(=O)N2CC[C@@](F)(C(=O)N[C@H](C)/C=C\S(C)(=O)=O)C[C@H]2C)c(-c2ccccc2Cl)c1` [Compound 149, (2R,4S)-1-((2′-chloro-5-(methoxymethyl)-[1,1′-biphenyl]-2-yl)sulfonyl)-4-fluoro-2-methyl-N-((R,Z)-4-(methylsulfonyl)but-3-en-2-yl)piperidine-4-carboxamide], in assay [1], the IC50 worked out at 248 nM and the Emax was determined as 109%. Also, the IC50 at PIK3CA was found to be 161 nM.

On to `C[C@H](/C=C\S(C)(=O)=O)NC(=O)[C@@]1(F)CCCN(C(=O)[C@H]2CN(C3CC3)C[C@H]2c2ccccc2Cl)CC1` [Compound 303, (R)-1-((3R,4R)-4-(2-chlorophenyl)-1-cyclopropylpyrrolidine-3-carbonyl)-4-fluoro-N-((R,Z)-4-(methylsulfonyl)but-3-en-2-yl)azepane-4-carboxamide], for which the IC50 in assay [1] was found to be 243 nM; at PIK3CA, 557 nM. The Emax in assay [1] was 102%.

`COCc1ccc(S(=O)(=O)N2CC[C@@](F)(C(=O)N[C@H](C)/C=C/C(=O)N3CC(F)(F)C3)C[C@H]2C)c(-c2ccccc2Cl)c1` [Compound 156, (2R,4S)-1-((2′-chloro-5-(methoxymethyl)-[1,1′-biphenyl]-2-yl)sulfonyl)-N-((R,E)-5-(3,3-difluoroazetidin-1-yl)-5-oxopent-3-en-2-yl)-4-fluoro-2-methylpiperidine-4-carboxamide]: the IC50 in assay [1] is 348 nM; on PIK3CA, 520 nM. In addition, the Emax in assay [1] turned out to be 99.2%.

For the compound `C[C@H]1C[C@](F)(C(=O)N[C@@H]2C=CS(=O)(=O)C2)CCN1C(=O)[C@H]1CN(CC(F)(F)F)C[C@H]1c1ccccc1Cl` (single isomer, unassigned) [Compound 174, (2*S,4*S)-1-((3R,4R)-4-(2-chlorophenyl)-1-(2,2,2-trifluoroethyl)pyrrolidine-3-carbonyl)-N-((R)-1,1-dioxido-2,3-dihydrothiophen-3-yl)-4-fluoro-2-methylpiperidine-4-carboxamide], in assay [1], the IC50 came to 168 nM and the Emax stood at 91.8%. Further, on PIK3CA, the IC50 stood at 276 nM.
